Results on five molecules are retold here after patent US4880789A, “2'-Substituted-4-deoxy-thiazolo(5,4-c)-rifamycin SV derivatives” (Gruppo Lepetit S.P.A., priority 1985, dated 1989).

Values after ≈ are worked out from the molar mass of the structure shown. Read-outs that look alike come from different tables or passages of the source. Bounds are passed on as bounds.

Assay [1] deals with Staphylococcus aureus ATCC 6538. Description: MIC, two-fold dilution microtiter, S. aureus ATCC 6538. In kind it is cell-based. The conditions noted are these: Staphylococcus aureus, ATCC6538; S. aureus ATCC 6538; Iso-Sensitest broth; 18-24 h, 37° C; read-out: MIC.
Assay [2] relates to S. pneumoniae UC 41. Description: MIC, two-fold dilution microtiter, S. pneumoniae UC 41. It is filed as cell-based. The conditions noted are these: Streptococcus pneumoniae, UC41, Todd-Hewitt broth, 18-24 h, 37° C, read-out: MIC.
The test system of assay [3] is Klebsiella pneumoniae ISM. Description: MIC, two-fold dilution microtiter, K. pneumoniae ISM. It is filed as cell-based. The following applies: Klebsiella pneumoniae.
Assay [4] relates to Proteus vulgaris XI9H ATCC 881. Description: MIC, two-fold dilution microtiter, P. vulgaris. The following applies: Proteus vulgaris, ATCC881. In kind it is cell-based.
Assay [5] concerns Escherichia coli SKF 12140. In words: MIC, two-fold dilution microtiter, E. coli SKF 12140. It is filed as cell-based. The following applies: Escherichia coli, SKF12140, Iso-Sensitest broth, 18-24 h, 37° C, read-out: MIC.
Assay [6] has as its system S. aureus TOUR L 1282. Description: MIC, two-fold dilution microtiter, rifampicin resistant S. aureus TOUR L 1282. The conditions noted are these: Staphylococcus aureus, TOURL1282, rifampicin resistant strain. In kind it is cell-based.
The subject of assay [7] is Streptococcus pyogenes C203. Description: MIC, two-fold dilution microtiter, S. pyogenes C203. The conditions noted are these: Streptococcus pyogenes, Todd-Hewitt broth, 18-24 h, 37° C, read-out: MIC. In kind it is cell-based. Here is the method:
(§1) The minimum inhibitory concentration (MIC) of representative compounds of the invention was determined using two-fold dilution method in microtiter system. The media used were: Todd-Hewitt broth (Difco) for steptococci; Iso-Sensitest broth (Oxoid) for staphylococci and gram-negative bacteria. The final inoculum was about 10^4 cfμ/ml. […] For M. tuberculosis H37 RV the inoculum consisted of 0.5-1% of a 7-9 day culture in Dubos medium. The tests were carried out in Kirschner medium supplemented with 10% horse serum. Observations were made after 7-days incubation at 37° C.

The subject of assay [8] is S. aureus TOUR L 165. Description: MIC, two-fold dilution microtiter, S. aureus TOUR L 165. The following applies: Staphylococcus aureus, TOURL165, S. aureus TOUR L 165, read-out: MIC. In kind it is cell-based, Staphylococcus aureus.
Assay [9] concerns Pseudomonas aeruginosa ATCC 10145. Description: MIC, two-fold dilution microtiter, P. aeruginosa ATCC 10145. It is filed as cell-based. The conditions noted are these: Pseudomonas aeruginosa, ATCC10145.
Assay [10] relates to Mycobacterium tuberculosis H37RV ATCC 9360. Description: MIC, M. tuberculosis H37RV, Kirschner medium. In kind it is cell-based. The following applies: Mycobacterium tuberculosis, 168 h, 10% horse serum, 7 days, 37° C, read-out: MIC. Here is the method:
as §1

In assay [11] the test system is S. faecalis ATCC 7080. Description: MIC, two-fold dilution microtiter, S. faecalis ATCC 7080. It is filed as cell-based. The following applies: Enterococcus faecalis, ATCC7080, 18-24 h, 37° C, read-out: MIC.
The test system of assay [12] is S. aureus tour L 165. Description: experimental septicemia in mice (S. aureus). The conditions noted are these: Staphylococcus aureus, once daily for three days, survival on 10th day. It is filed as in vivo. Here is the method:
The antimicrobial activity of the compounds of the invention is also confirmed in "in vivo" tests. The animals (groups of five mice) were infected by intraperitoneal injection of 16-hour broth culture of S. aureus tour L 165. Inocula were adjusted so that untreated animals died of septicemia within 48 hours. Animals were treated once daily for three days starting immediately after infection. On the 10th day the value for the ED50 in mg/kg/day was calculated by the method of […]-KARBER (Finney, D. J., Statistical method in biological assay, page 524. C. Griffin Ltd., London, 1952), on the basis of the percentage of surviving animals at each dose.

Where [13] appears, read: K. pneumoniae ISM, Iso-Sensitest broth, 18-24 h, 37° C, read-out: MIC.
[14] abbreviates: P. vulgaris XI9H ATCC 881, Iso-Sensitest broth, 18-24 h, 37° C, read-out: MIC.
The mark [15] stands for this setting: Iso-Sensitest broth, 18-24 h, 37° C.
Where [16] appears, read: supplemented with 30% bovine serum.
Where [17] appears, read: P. aeruginosa ATCC 10145, Iso-Sensitest broth, 18-24 h, 37° C, read-out: MIC.

By MIC is commonly meant the lowest concentration that inhibits growth of the organism. The ED50 is the dose at which the effect has come halfway, by size or by number of responders. Higher therefore signals a need for a large dose. As to `COC1C=COC2(C)Oc3c(C)c(O)c4c(O)c(c5sc(N6CCN(C)CC6)nc5c4c3C2=O)NC(=O)C(C)=CC=CC(C)C(O)C(C)C(O)C(C)C(OC(C)=O)C1C` (stereo not shown) [Example 3a, 2'-(4"-Methyl-1"-piperazinyl) rifamycin P], the MIC in assay [1] was found to be 0.001 µg/mL (≈ 0.00119 µM); in [2], 0.032 µg/mL (≈ 0.0382 µM); in [3] (setting [13]), 32 µg/mL (≈ 38.2 µM); in assay [4] (setting [14]) it was 8 µg/mL (≈ 9.56 µM); in assay [5] it was 16 µg/mL (≈ 19.1 µM); in assay [6], 32 µg/mL (≈ 38.2 µM). Moreover, the MIC in assay [7] worked out at 0.032 µg/mL (≈ 0.0382 µM); in assay [8] (setting [15]), 0.004 µg/mL (≈ 0.00478 µM); in [8] (setting [16]), 0.004 µg/mL (≈ 0.00478 µM); in assay [9] (setting [17]), 16 µg/mL (≈ 19.1 µM); in assay [10] it was 1 µg/mL (≈ 1.19 µM); in [11], 2 µg/mL (≈ 2.39 µM). Further, the ED50 in assay [12] (TOURL165, 240 h, sc) turned out to be 0.16 mg/kg; in [12] (TOURL165, po, 240 h, os) it was 0.36 mg/kg.

On to `COC1C=COC2(C)Oc3c(C)c(O)c4c(O)c(c5sc(N6CCN(C)CC6)nc5c4c3C2=O)NC(=O)C(C)=CC=CC(C)C(O)C(C)C(O)C(C)C(O)C1C` (stereo not shown) [Example 3b, 25-Desacetyl-2'-(4"-methyl-1-piperazinyl) rifamycin P], for which the minimal inhibitory concentration (MIC) is 0.008 µg/mL (≈ 0.0101 µM) in assay [1]; 0.063 µg/mL (≈ 0.0792 µM) in assay [2]; 16 µg/mL (≈ 20.1 µM) in assay [3] (setting [13]); 8 µg/mL (≈ 10.1 µM) in [4] (setting [14]); 8 µg/mL (≈ 10.1 µM) in assay [5]; greater than 128 µg/mL in assay [6]. Moreover, the MIC in assay [7] is 0.063 µg/mL (≈ 0.0792 µM); in assay [8] (setting [15]), 0.008 µg/mL (≈ 0.0101 µM); in assay [8] (setting [16]), 0.016 µg/mL (≈ 0.0201 µM); in assay [9] (setting [17]) it was 8 µg/mL (≈ 10.1 µM); in assay [10], 1 µg/mL (≈ 1.26 µM); in [11] it was 1 µg/mL (≈ 1.26 µM). Besides, the median effective dose (ED50) came to 10 mg/kg in assay [12] (TOURL165, 240 h, sc) and 13 mg/kg in [12] (TOURL165, po, 240 h, os).

Regarding `COC1C=COC2(C)Oc3c(C)c(O)c4c(O)c(c5sc(N6CCN(CCO)CC6)nc5c4c3C2=O)NC(=O)C(C)=CC=CC(C)C(O)C(C)C(O)C(C)C(OC(C)=O)C1C` (stereo not shown) [Example 3c, 2'-[4"(2'"-hydroxyethyl)-1"-piperazinyl]rifamycin P], the MIC in [1] came to 0.008 µg/mL (≈ 0.00923 µM); in assay [2] it was 0.008 µg/mL (≈ 0.00923 µM); in assay [3] (setting [13]), 32 µg/mL (≈ 36.9 µM); in assay [4] (setting [14]), 16 µg/mL (≈ 18.5 µM); in assay [5], 8 µg/mL (≈ 9.23 µM); in assay [6] it was 64 µg/mL (≈ 73.8 µM). For the same molecule, the MIC stood at 0.016 µg/mL (≈ 0.0185 µM) in [7]; 0.016 µg/mL (≈ 0.0185 µM) in [8] (setting [15]); 0.032 µg/mL (≈ 0.0369 µM) in [8] (setting [16]); 128 µg/mL (≈ 148 µM) in assay [9] (setting [17]); 4 µg/mL (≈ 4.61 µM) in assay [10]; 4 µg/mL (≈ 4.61 µM) in assay [11]. Moreover, the ED50 in assay [12] (TOURL165, 240 h, sc) is 3.3 mg/kg; in assay [12] (TOURL165, po, 240 h, os), greater than 20 mg/kg.

Turning to `COC1C=COC2(C)Oc3c(C)c(O)c4c(O)c(c5sc(N6CCN(c7ccc(Cl)cc7)CC6)nc5c4c3C2=O)NC(=O)C(C)=CC=CC(C)C(O)C(C)C(O)C(C)C(OC(C)=O)C1C` (stereo not shown) [Example 3d, 2'-[4"(4'"-chlorophenyl)-1-piperazinyl]rifamycin P], the minimum inhibitory concentration (MIC) in [1] is 0.064 µg/mL (≈ 0.0686 µM); in assay [2] it was 0.125 µg/mL (≈ 0.134 µM); in [3], greater than 128 µg/mL; in assay [4], greater than 128 µg/mL; in [5], 1 µg/mL (≈ 1.07 µM); in assay [6], greater than 128 µg/mL. Further, the MIC was determined as 0.064 µg/mL (≈ 0.0686 µM) in assay [7]; 0.064 µg/mL (≈ 0.0686 µM) in assay [8] (setting [15]); 0.25 µg/mL (≈ 0.268 µM) in assay [8] (setting [16]); 128 µg/mL (≈ 137 µM) in assay [9]; 1 µg/mL (≈ 1.07 µM) in assay [10]; 2 µg/mL (≈ 2.14 µM) in assay [11]. The ED50 came to 3.3 mg/kg in assay [12] (TOURL165, 240 h, sc) and 3.3 mg/kg in [12] (TOURL165, po, 240 h, os).

For the molecule `COc1ccc(N2CCN(c3nc4c(s3)c3c(O)c5c(O)c(C)c6c(c54)C(=O)C(C)(OC=CC(OC)C(C)C(OC(C)=O)C(C)C(O)C(C)C(O)C(C)C=CC=C(C)C(=O)N3)O6)CC2)cc1` (stereo not shown) [Example 3e, 2'-[4"(4'"-methoxyphenyl)-1-piperazinyl]rifamycin P], the MIC in [1] is 0.064 µg/mL (≈ 0.0689 µM); in assay [2], 0.064 µg/mL (≈ 0.0689 µM); in [3], greater than 128 µg/mL; in assay [4] (setting [14]) it was 64 µg/mL (≈ 68.9 µM); in assay [5], 8 µg/mL (≈ 8.61 µM); in assay [6] it was greater than 128 µg/mL. Moreover, the MIC stood at 0.125 µg/mL (≈ 0.135 µM) in [7]; 0.064 µg/mL (≈ 0.0689 µM) in assay [8] (setting [15]); 0.5 µg/mL (≈ 0.538 µM) in assay [8] (setting [16]); 8 µg/mL (≈ 8.61 µM) in assay [9] (setting [17]); 0.25 µg/mL (≈ 0.269 µM) in assay [10]; 4 µg/mL (≈ 4.31 µM) in assay [11]. Further, the ED50 in assay [12] (TOURL165, 240 h, sc) worked out at 0.63 mg/kg; in [12] (TOURL165, po, 240 h, os), 1.9 mg/kg.
